“And” between values parts separate entries of the source, which are not always exact repeats. Equal values may be shown once. Read-outs that look alike come from different tables or passages of the source.

Excerpt: The first step in the method for assigning a BI to a test sample material on the BI reference scale is to create the BI reference swatches. […] Fabric swatches for this test are white knit polycotton (4 inch×4 inch) swatches from EMC ordered as PC 50/50. The supplier is instructed to strip the swatches first, stripping involves washing twice with a fragrance-free detergent and rinsing three times.
Making the BI Reference Swatches
The BI scale contains one clean swatch with no malodor applied. […] These solutions are pipetted to the middle of the swatches. […] After drying for 30 minutes in a vented hood, the swatches are wrapped in aluminum foil to prevent odor contamination to the treated swatch. A clean untreated swatch is also included as the lowest anchor point of reference for malodor strength on the BI scale. The BI reference scale swatches should be used within 0.5 to 12 hours and discarded after 12 hours. The swatches are used as scale anchor points when graders evaluate a test sample(s) and are assigned a Blocker Index (BI) as show in Table 11 below.
The perfumer/expert grader is asked to rank order swatches according to a scale between 0 and 3.

For the compound `CC(C)CC(=O)O` [isovaleric acid], the “BI rank Ave” value (2 μL 0.08% isovaleric acid, all graders (Table 11)) worked out at 1.0. Moreover, the “BI rank by individual expert grader” value by setting is: (stripped swatch with 2 μL 0.08% isovaleric acid) 0.5 and 2.0 and 1.0; (stripped swatch with 5 μL 0.08% isovaleric acid) 2.0 and 2.5; (stripped swatch with 20 μL 0.08% isovaleric acid) 3.0 and 2.5.

For the origin of these results see US20190029928A1, “Fibrous Structures Comprising Malodor Reduction Compositions” (The Procter & Gamble Company, priority 2017, published 2019).
